Reference: patent US11267840B1, “Compound or salt thereof” (M.T.3, Inc., priority 2020, dated 2022)

Legend:
[1] = tested on: adenocarcinomic human alveolar basal epithelial cell line A549 cells; assay: ROS production in A549 cells (CellROX Green fluorescence), test as candidate compound for radiosensitizer; assay type: cell-based; conditions: 1 hour with test compound, CellROX Green 30 minutes, excitation 485 nm, detection 520 nm, FIG. 19
Description: Fetal bovine serum (FBS) (manufactured by Sigma-Aldrich) was added to RPMI1640 (manufactured by Sigma-Aldrich) such that a final concentration was 10%. Further, penicillin G potassium (manufactured by Meiji Seika) and Streptomycin (manufactured by Meiji Seika) were each added in an amount of 0.1 mg/mL, and the thus obtained solution was used as a culture medium in the following test. Also, a CellROX Green Reagent solution (manufactured by Thermo Fisher Scientific) was used as a reagent.
Adenocarcinomic human alveolar basal epithelial cell line A549 cells were suspended in the RPMI1640 medium (1.0×10^5 cells/mL), and the suspension was poured into a 96-well plate in an amount of 100 μL for each well. Thereafter, the cells were cultivated under a 5% CO2 moisture-saturated condition at 37° C. so as to attach to the plate, and after the cultivation was performed for 24 hours, the medium was removed by suction and the cells were washed with PBS. Next, 100 μL of PBS and 100 μL of a suspension of the test compound suspended in PBS ([…]) were separately added. […] After the cultivation was performed for 30 minutes, washing was performed using PBS, and fluorescence intensity at an excitation wavelength of 485 nm and a detection wavelength of 520 nm was measured.

[2] = target: T1, lipase for organic synthesis (Lipase PS Amano SD) (Burkholderia cepacia, UniProt P22088); assay type: in vitro ADME
T1 construct: purchased FUJIFILM Wako Pure Chemical Corporation
Description: The test compound and lipase for organic synthesis (Lipase PS Amano SD, manufactured by FUJIFILM Wako Pure Chemical Corporation) were each adjusted using PBS so as to have a concentration of 1.3 μg/μL. Next, the thus obtained reaction solution was developed by TLC using an eluent (chloroform:methanol=1:1) and was analyzed. A sample that was taken before reaction progressed, a sample that was taken when 2 hours elapsed, and a sample that was taken when 4 hours elapsed were each used as the reaction solution to be developed. As for the reaction solution in which the compound (A) was used as the test compound, analysis was also performed on a sample that was taken when 18 hours elapsed from the start of reaction. TLC aluminum sheet silica gel 60 F254 (manufactured by Merck) was used as the TLC.

T1 sequence (P22088 45-364): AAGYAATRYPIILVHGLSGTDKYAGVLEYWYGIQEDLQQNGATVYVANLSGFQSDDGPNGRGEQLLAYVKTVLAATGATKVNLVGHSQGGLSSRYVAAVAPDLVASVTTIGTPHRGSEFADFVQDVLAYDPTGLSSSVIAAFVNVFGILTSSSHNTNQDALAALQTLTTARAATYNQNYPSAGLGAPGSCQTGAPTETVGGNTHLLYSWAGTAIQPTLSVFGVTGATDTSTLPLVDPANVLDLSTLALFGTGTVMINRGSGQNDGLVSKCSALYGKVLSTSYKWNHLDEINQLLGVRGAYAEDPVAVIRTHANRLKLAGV

3-(n-octadecyloxy)-n-propyl-α-D-quinovopyranoside sodium salt [compound (A)]
ROS production (ROS production ratio, fluorescence intensity relative to PBS only = 1) [1]: induced production of the ROS
resistance to hydrolysis compared with the sulfopyranosylacyl propanediol derivative ([2]; lipase, overall conclusion of FIG. 20): more excellent resistance to hydrolysis
decomposition of the test compound by lipase (TLC) ([2]; when 18 hours elapsed from the start of reaction, compound and lipase each 1.3 μg/μL in PBS, FIG. 20): not completely decomposed
